We go through 16 compounds from ChEMBL document CHEMBL3881525, “Analogs of dehydrophenylahistins and their therapeutic use” (2007).

Test [1] in a line: Cytotoxicity against human HT-29 cells assessed as reduction in cell viability measured after 48 hrs by resazurin dye-based fluorometric analysis. The test is classed as functional.
Test [2] is described as follows: Cytotoxicity against human HT-29 cells assessed as reduction in cell viability measured after 48 hrs by resazurin dye-based fluorometric analysis relative to control. The test is classed as functional.
Test [3] is described as follows: Antifungal activity against Trichophyton mentagrophytes isolate 1 measured after 48 hrs by broth dilution method. The test is classed as functional.
In test [4] the test system is Trichophyton mentagrophytes. Put plainly: Fungicidal activity against Trichophyton mentagrophytes isolate 1 measured after 48 hrs by broth dilution method. The test is classed as functional. Conditions: isolate 1, 48 h.
The nature of test [5]: Antifungal activity against Trichophyton mentagrophytes isolate 2 measured after 48 hrs by broth dilution method. It is filed as functional.
Test [6] can be described thus: Antifungal activity against Candida glabrata measured after 48 hrs by broth dilution method. It is filed as functional. To be noted: Nakaseomyces glabratus.
Test [7] in a line: Antifungal activity against Trichophyton rubrum isolate 2 measured after 48 hrs by broth dilution method. The test is classed as functional.
Test [8] is described as follows: Antifungal activity against Trichophyton rubrum isolate 1 measured after 48 hrs by broth dilution method. The test is classed as functional.
The test system of test [9] is Aspergillus fumigatus. Put plainly: Antifungal activity against Aspergillus fumigatus isolate 2 measured after 48 hrs by broth dilution method. The test is classed as functional. Conditions: isolate 2, 48 h.
Test [10] has as its system Aspergillus fumigatus. As to the kind of experiment: Antifungal activity against Aspergillus fumigatus isolate 1 measured after 48 hrs by broth dilution method. To be noted: isolate 1, 48 h. The test is classed as functional.
Test [11] can be described thus: Antifungal activity against Epidermophyton floccosum isolate 1 measured after 48 hrs by broth dilution method. It is filed as functional.
Test [12] is described as follows: Antifungal activity against Epidermophyton floccosum isolate 2 measured after 48 hrs by broth dilution method. It is filed as functional.
For a further test, the system named is Trichophyton rubrum. As to the kind of experiment: Fungicidal activity against Trichophyton rubrum isolate 2 measured after 48 hrs by broth dilution method. It is filed as functional. Conditions: isolate 2, 48 h.
Test [13] is described as follows: Cytotoxicity against human NCI-H292 cells assessed as reduction in cell viability measured after 48 hrs by resazurin dye-based fluorometric analysis. It is filed as functional. Conditions: NCI-H292, 48 h.
Test [14] is described as follows: Antiproliferative activity against taxol-resistant human MES-SA/Dx5 cells expressing MDR1 mRNA and P-gp. The test is classed as functional, cell-based.
Test [15] concerns the target T1, Tubulin (Homo sapiens) (UniProt P68371+Q9H4B7+P0DPH7+P68366+Q13509+Q71U36+P04350+Q3ZCM7+P07437+P68363+Q9BQE3+Q6PEY2+Q13885+Q9BVA1+Q9BUF5). Put plainly: Induction of microtubule depolymerization in HUVEC at 1.5 to 5 uM by turbidity spectroscopic analysis. It is filed as cell-based.
The nature of test [16]: Cytotoxicity against human PC3 cells assessed as reduction in cell viability measured after 48 hrs by resazurin dye-based fluorometric analysis. The test is classed as functional. Conditions: PC-3, 48 h.
A short description of test [17]: Antiproliferative activity against human mitoxantrone-resistant HL60/MX2 cells. Conditions: HL-60. The test is classed as functional, cell-based.
For another test, the system named is MES-SA. As to the kind of experiment: Ratio of EC50 for taxol-resistant human MES-SA/DX5 cells expressing MDR1 mRNA and P-gp to EC50 for taxol-sensitive human MES-SA cells. The test is classed as functional.
Test [18] deals with T1, Tubulin (Homo sapiens). As to the kind of experiment: Induction of microtubule depolymerization in HUVEC at 20 nM measured after 30 mins by DAPI-staining based immunofluorescence analysis. It is filed as cell-based.
Test [19] is described as follows: Cytotoxicity against mouse B16F10 cells assessed as reduction in cell viability measured after 48 hrs by resazurin dye-based fluorometric analysis. The test is classed as functional. To be noted: B16-F10, 48 h.
In the next test the test system is HL-60. As to the kind of experiment: Ratio of EC50 for human mitoxantrone-sensitive HL60 cells to EC50 for human mitoxantrone-resistant HL60/MX2 cells. It is filed as functional.
The nature of test [20]: Cytotoxicity against human MDA-MB-231 cells assessed as reduction in cell viability measured after 48 hrs by resazurin dye-based fluorometric analysis. It is filed as functional. Conditions: MDA-MB-231, 48 h.
Test [21] is described as follows: Cytotoxicity against human PC3 cells assessed as reduction in cell viability measured after 48 hrs by resazurin dye-based fluorometric analysis relative to control. The test is classed as functional, PC-3. Also noted: concentration or dose not given beside the values.

Values after ≈ are worked out from the molar mass of the structure shown. Active and inactive are the calls of the source. No cut-off for these calls is given here.

As for `CC(C)(C)c1ccc(O)c(/C=c2\[nH]c(=O)/c(=C/c3ccccc3)[nH]c2=O)c1.O=C(O)C(F)(F)F`, in [1] (Homo sapiens, HT-29, 48 h), the concentration for a half-maximal effect (EC50) is greater than 2000 nM. Also, the “inhibition (INH)” value in test [2] was 14%.
For the compound `Cn1cccc1/C=c1\[nH]c(=O)/c(=C/c2nc[nH]c2C(C)(C)C)[nH]c1=O.O=C(O)C(F)(F)F`, in [1] (Homo sapiens, HT-29, 48 h), the EC50 lay within 105 to 117 nM. The “inhibition (INH)” value in test [2] stood at 88%.
With `C=CC(C)(C)c1[nH]cnc1/C=C1\NC(=O)C(Cc2ccccc2)N=C1OC` (stereo not drawn), in [1] (Homo sapiens, HT-29, 48 h), the EC50 was greater than 2000 nM. Further, the “inhibition (INH)” value in [2] was determined as 13%.
As for `Cc1cccc(/C=c2\[nH]c(=O)/c(=C/c3nc[nH]c3C(C)(C)C)[nH]c2=O)n1.O=C(O)C(F)(F)F.O=C(O)C(F)(F)F`, the half-maximal effective concentration (EC50) in test [1] (Homo sapiens, HT-29, 48 h) was greater than 2000 nM. For the same compound, the “inhibition (INH)” value in test [2] came to 37%.
As to `CC(C)(C)c1[nH]cnc1/C=c1\[nH]c(=O)/c(=C/c2cc(Br)cs2)[nH]c1=O.O=C(O)C(F)(F)F`, the EC50 in test [1] (Homo sapiens, HT-29, 48 h) was 1710 nM. For the same compound, the “inhibition (INH)” value in test [2] was 86%.
In the same order, the values of `COc1cccc2cc3c(=O)[nH]/c(=C\c4nc[nH]c4C(C)(C)C)c(=O)n3c12` are 6920 to 7040 nM and 58 - 100%.
Turning to `C=CC(C)(C)c1[nH]cnc1/C=C1\NC(=O)[C@H](Cc2ccccc2)NC1=O`, the minimal inhibitory concentration (MIC) in [3] is 16 µg/mL (≈ 45.7 µM); in [5] it was greater than 16 µg/mL; in test [6], greater than 70 µg/mL; in [7] it was 0.16 µg/mL (≈ 0.457 µM); in test [8], greater than 16 µg/mL; in the test on Aspergillus fumigatus [9], greater than 16 µg/mL. Moreover, the MIC (against Aspergillus fumigatus [10]; in test [11]; in test [12]) was greater than 16 µg/mL each time. Also, the MFC (in [4]; in the test on Trichophyton rubrum) was greater than 16 µg/mL throughout. In test [1] (Homo sapiens, HT-29, 48 h), the EC50 is 394 to 1600 nM. The “inhibition (INH)” value in test [2] was 87%.
For `CC(C)(C)c1ocnc1/C=c1\[nH]c(=O)/c(=C/c2ccccc2)[nH]c1=O.O=C(O)C(F)(F)F`, the EC50 in test [13] is 19 nM; in [16], 20 nM; in [17] it was 14 nM; in [1] (Homo sapiens, HT-29, 48 h), 21 to 22.2 nM; in test [19] it was greater than 2000 nM; in [20], 41 nM. Further, the concentration for half-maximal inhibition (IC50) in test [14] was 17 nM. For the same compound, the result at Tubulin (Homo sapiens) [15] and on Tubulin (Homo sapiens) [18] was Active. In addition, the “Ratio EC50” value with MES-SA turned out to be 1.4; in the test on HL-60 it was 0.6. The “inhibition (INH)” value in [2] came to 88%.
`CC(C)(C)c1[nH]cnc1/C=c1\[nH]c(=O)/c(=C/c2cccc3c2OCO3)[nH]c1=O.O=C(O)C(F)(F)F`: the concentration giving a half-maximal response (EC50) in test [1] (ht-29) fell in the range of 477 to 520 nM. Moreover, in test [2], the “inhibition (INH)” value is listed as 82%.
As to `CC(C)(C)c1[nH]cnc1/C=c1\[nH]c(=O)/c(=C/c2cc(Cl)ccc2O)[nH]c1=O.O=C(O)C(F)(F)F`, in test [1] (Homo sapiens, HT-29, 48 h), the EC50 is greater than 2000 nM. The “inhibition (INH)” value in test [2] stood at 37%.
On the same counts, the results for `COc1cccc(/C=c2\[nH]c(=O)/c(=C/c3nc[nH]c3C(C)(C)C)[nH]c2=O)c1O` are 5360 to 5870 nM and 79 - 86%.
For the compound `COC1=CC(=O)C[C@@H](C)[C@]12Oc1c(Cl)c(OC)cc(OC)c1C2=O` [GRISEOFULVIN], the MIC in test [3] was 1 µg/mL (≈ 2.83 µM); in test [5] it was 2 µg/mL (≈ 5.67 µM); in [7], less than 0.015 µg/mL; in [8], 0.5 µg/mL (≈ 1.42 µM); with Aspergillus fumigatus [9], 0.5 µg/mL (≈ 1.42 µM); in [11] it was 2 µg/mL (≈ 5.67 µM).
On to `Cc1ccc(/C=c2\[nH]c(=O)/c(=C/c3nc[nH]c3C(C)(C)C)[nH]c2=O)s1`, for which, in [1] (Homo sapiens, HT-29, 48 h), the concentration for a half-maximal effect (EC50) was 80 to 85.2 nM. For the same compound, the “inhibition (INH)” value in test [2] is recorded as 85 - 97%.
Take `COc1cc(/C=c2\[nH]c(=O)/c(=C/c3nc[nH]c3C(C)(C)C)[nH]c2=O)cc(OC)c1`: the Activity in test [21] was found to be 82%. In addition, the half-maximal effective concentration (EC50) in test [1] (Homo sapiens, HT-29, 48 h) was in the range of 42 to 45.4 nM. For the same compound, the “inhibition (INH)” value in [2] was 87%.
In the case of `C=CC(C)(C)c1[nH]cnc1/C=c1\[nH]c(=O)/c(=C/c2ccc(OC)cc2)[nH]c1=O`, the EC50 in test [1] (Homo sapiens, HT-29, 48 h) was 6570 to 6730 nM. The “inhibition (INH)” value in test [2] came out at 63%.
With `Cc1[nH]cnc1/C=c1\[nH]c(=O)/c(=C/c2nc[nH]c2C(C)(C)C)[nH]c1=O.O=C(O)C(F)(F)F.O=C(O)C(F)(F)F`, the concentration giving a half-maximal response (EC50) in test [1] (Homo sapiens, HT-29, 48 h) lay within 2350 to 2790 nM. Also, the “inhibition (INH)” value in test [2] came to 84%.
